From the supplement of paper PMC11208160

Test: recombinant UMI read abundance after kanamycin selection (control-corrected) (log10(CPM+1)); higher = more efficient recombination; extreme values may be limits of the assay; sequences stand for … in AGTGCAGAGAAAATCGGCCAGTTTTCTCTGCCTGCAGTCCGCATGCCGTGGGACCCCTTGGGTTCTAACCTGTTGCCTAGATTTATGCAGCGGACTGCCTTTCTCCCAAAGTGATAAACCGG…AGGTTGGTTTCACT; site = the 11-nt donor
Experimental: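 Pooled E. coli donor-specificity screen for the IS621 bridge recombinase. Each library member carries a reprogrammed 11-nt donor and a full-length LE bridge RNA expressed in cis from the natural promoter, with a paired donor-binding loop (8-nt LDG + 4-nt RDG) and a target-binding loop fixed to T5. It is co-electroporated with a T5 target plasmid; recombinase is induced with 0.07 mM IPTG and recombinants are selected on kanamycin. UMIs are counted as CPM, averaged over two biological replicates and corrected by the unselected control. Molecule = full bridge RNA written as DNA, built from the T5 scaffold: LDG = donor specificity nt 1-8, RDG = reverse complement of nt 8-11.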

Point of comparison: “CCTACTACATGGACCGGTTTTCCCGGTAATCCGTATTTGGC (site CCTAATACTGC)”, “recombinant UMI read abundance (log10)” value 0. Against it:
- GTGGAAGCATGGACCGGTTTTCCCGGTAATCCGTATTTGTG (site GTGGAGGCTCA) — higher, 1.53
- CTGCGTTCATGGACCGGTTTTCCCGGTAATCCGTATTTGGA (site CTGCGTTCTTC) — higher, 1.44
- GTAGATACATGGACCGGTTTTCCCGGTAATCCGTATTTGAC (site GTAGTTACTGT) — higher, 0.903
- CGGGCACCATGGACCGGTTTTCCCGGTAATCCGTATTTGCA (site CGGGCACCTTG) — the same, 0
- TATCATCCATGGACCGGTTTTCCCGGTAATCCGTATTTGGT (site TATCATCCTAC) — within 0.2 log units, 0.0117
- CGATGATCATGGACCGGTTTTCCCGGTAATCCGTATTTGAA (site CGATGATCTTT) — higher, 2.86
- TGCACACCATGGACCGGTTTTCCCGGTAATCCGTATTTGAC (site TGAACACCTGT) — the same, 0
- TATGCGGCATGGACCGGTTTTCCCGGTAATCCGTATTTGCT (site TTTGCGGCTAG) — within 0.2 log units, 0.00802
- CCGTTCGCATGGACCGGTTTTCCCGGTAATCCGTATTTGTG (site CCGTTTGCTCA) — within 0.2 log units, 0.00651
- TATTTGGCATGGACCGGTTTTCCCGGTAATCCGTATTTGTG (site AATTTGGCTCA) — within 0.2 log units, 0.0279
- ATAATGCCATGGACCGGTTTTCCCGGTAATCCGTATTTGAC (site ATAATGCCTGT) — higher, 2.03
- ACACATCCATGGACCGGTTTTCCCGGTAATCCGTATTTGAC (site ACACATCCTAT) — within 0.2 log units, 0.0886
- GCAGATTCATGGACCGGTTTTCCCGGTAATCCGTATTTGGG (site GCAGATTCTCC) — higher, 0.609
- CGGAATTCATGGACCGGTTTTCCCGGTAATCCGTATTTGAA (site CGGAATTCTTT) — higher, 1.67
- TCAACGGCATGGACCGGTTTTCCCGGTAATCCGTATTTGCC (site TCAACGGCTGG) — within 0.2 log units, 0.143
- GTTGTTCCATGGACCGGTTTTCCCGGTAATCCGTATTTGGA (site GTTGTTCCTAC) — the same, 0
- CCGAATCCATGGACCGGTTTTCCCGGTAATCCGTATTTGTT (site CCGAATCCTAA) — higher, 0.251
- ACGGCCTCATGGACCGGTTTTCCCGGTAATCCGTATTTGGG (site ACGGCCTCTCC) — within 0.2 log units, 0.0343
- AGTTCCACATGGACCGGTTTTCCCGGTAATCCGTATTTGTA (site AGTTCCACTTA) — higher, 0.751
- GGACCAACATGGACCGGTTTTCCCGGTAATCCGTATTTGTA (site GGCCCAACTTA) — within 0.2 log units, 0.00566
- CGCGGTACATGGACCGGTTTTCCCGGTAATCCGTATTTGCT (site CGCCGTACTAG) — the same, 0
- CACATGGCATGGACCGGTTTTCCCGGTAATCCGTATTTGGA (site CACATGGCTTC) — higher, 0.785
- ATCGAAGCATGGACCGGTTTTCCCGGTAATCCGTATTTGAG (site ATCAAAGCTCT) — higher, 2.12
- TCTTCGACATGGACCGGTTTTCCCGGTAATCCGTATTTGAG (site TCTTCGACTCT) — within 0.2 log units, 0.0148
- CGCTCATCATGGACCGGTTTTCCCGGTAATCCGTATTTGCT (site CGATCATCTAG) — the same, 0
- GGATAGACATGGACCGGTTTTCCCGGTAATCCGTATTTGCC (site GGATAGACTGT) — higher, 1.32
- CCAATATCATGGACCGGTTTTCCCGGTAATCCGTATTTGTC (site CCAATATCTGA) — higher, 1.16
- AGAAACGCATGGACCGGTTTTCCCGGTAATCCGTATTTGCT (site AGAAACGCTAG) — higher, 2.81
- GGCAATTCATGGACCGGTTTTCCCGGTAATCCGTATTTGAA (site GGCAATTCTTT) — higher, 0.996
- GTTTGAACATGGACCGGTTTTCCCGGTAATCCGTATTTGGC (site GTTTGAACTGC) — the same, 0
- GTGCATGCATGGACCGGTTTTCCCGGTAATCCGTATTTGGC (site GTGCATGCTGC) — higher, 2.28
- TGTTACCCATGGACCGGTTTTCCCGGTAATCCGTATTTGTA (site TGTTGCCCTTA) — within 0.2 log units, 0.0124
- CCCTAGCCATGGACCGGTTTTCCCGGTAATCCGTATTTGCA (site CCCTAGCCTGG) — the same, 0
- GGTTTGGCATGGACCGGTTTTCCCGGTAATCCGTATTTGCT (site TGTTTGGCTAG) — within 0.2 log units, 0.00406
- CTATGACCATGGACCGGTTTTCCCGGTAATCCGTATTTGAG (site CTATGACCTCT) — within 0.2 log units, 0.00436
- GGGCGATCATGGACCGGTTTTCCCGGTAATCCGTATTTGGC (site GGGCGATCTGC) — higher, 1.98
- GCTACTACATGGACCGGTTTTCCCGGTAATCCGTATTTGCC (site GCTACTGCTGG) — the same, 0
- GGAGGTACATGGACCGGTTTTCCCGGTAATCCGTATTTGAC (site GCAGGTACTGT) — higher, 0.553
- TCAGAGACATGGACCGGTTTTCCCGGTAATCCGTATTTGGG (site TCAGAGACTCG) — the same, 0
- TAGGAATCATGGACCGGTTTTCCCGGTAATCCGTATTTGCG (site TGGGAATCTCG) — higher, 1.02
- CGTAATCCATGGACCGGTTTTCCCGGTAATCCGTATTTGAT (site CGTAATCCTAT) — higher, 0.697
- GGATAGACATGGACCGGTTTTCCCGGTAATCCGTATTTGCC (site GGCTAGACTGG) — higher, 1.03
- GAGAAACCATGGACCGGTTTTCCCGGTAATCCGTATTTGGT (site GACAAACCTAC) — the same, 0
- ACATCAACATGGACCGGTTTTCCCGGTAATCCGTATTTGTG (site ACATCGACTCA) — within 0.2 log units, 0.0265
- GTATGCACATGGACCGGTTTTCCCGGTAATCCGTATTTGTA (site GTATGCCCTTA) — within 0.2 log units, 0.0248
- TATTTGGCATGGACCGGTTTTCCCGGTAATCCGTATTTGCG (site TATTTGGCTCT) — within 0.2 log units, 0.0118
- ACTAGAGCATGGACCGGTTTTCCCGGTAATCCGTATTTGAG (site ACTAGACCTCT) — the same, 0
- CCTATAGCATGGACCGGTTTTCCCGGTAATCCGTATTTGAT (site CCTACAGCTAT) — the same, 0
- CGGCCGGCATGGACCGGTTTTCCCGGTAATCCGTATTTGGC (site AGGCCGGCTGC) — the same, 0
- GTAGGTTCATGGACCGGTTTTCCCGGTAATCCGTATTTGAC (site GTAGGTACTGT) — higher, 1.88
- TTTGCTTCATGGACCGGTTTTCCCGGTAATCCGTATTTGGT (site TTTGCTTCTAC) — within 0.2 log units, 0.00326
- GGGAATCCATGGACCGGTTTTCCCGGTAATCCGTATTTGTT (site TGGAATCCTAA) — within 0.2 log units, 0.0126
- TCGTTCACATGGACCGGTTTTCCCGGTAATCCGTATTTGGA (site TCGTTCACTTC) — within 0.2 log units, 0.0102
- ACTAGAACATGGACCGGTTTTCCCGGTAATCCGTATTTGAG (site AATAGAACTCT) — higher, 0.839
- GGCAACCCATGGACCGGTTTTCCCGGTAATCCGTATTTGAA (site GGCAATCCTTT) — within 0.2 log units, 0.00284
- CGAGGACCATGGACCGGTTTTCCCGGTAATCCGTATTTGGC (site CGAGGACCTCC) — within 0.2 log units, 0.0246
